Data published in US20120165319A1, “INHIBITORS OF INTERLEUKIN-1 BETA CONVERTING ENZYME” (VERTEX PHARMACEUTICALS INCORPORATED, priority 1995, published 2012).
Where two headings read alike, the source gives them in different places.

Tests used:
[1] = system: IL-1β, human peripheral blood mononuclear cells (PBMC); assay: PBMC cell assay: IL-1β assay with human PBMC or enriched adherent mononuclear cells, LPS-stimulated; type: cell-based; conditions: Homo sapiens, PBMC
Outline: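 Mature IL-1β is measured by ELISA in supernatants after 16–18 hr at 37 °C, 5% CO2, with LPS (5 ng/ml final) and test compound (0.1% DMSO final). Cells are human PBMC (6×10^6 cells/ml) or plate-adherent mononuclear cells (2.5−3.0×10^5 per well), and the 5–6 compound concentrations span the ICE Ki.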

IL-1β, human whole blood = assay: Whole blood assay for IL-1β production; type: cell-based; conditions: Homo sapiens, Table 17; read-out: Whole human blood IC50
Outline: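 IL-1β was quantified by ELISA in plasma diluted 1:200. The plasma came from EDTA-anticoagulated human whole blood incubated at 30 °C for 16-18 h with LPS (final 5.0 ng/ml) plus a saline serial dilution of compound. Controls were no-LPS, no-inhibitor and highest-vehicle.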

[2] = system: IL-1β production, LPS-challenged mice; assay: In vivo acute assay for efficacy as anti-inflammatory agent: LPS-induced IL-1β production in mice; set-up: species or system mouse; conditions: Mus musculus, po, LPS challenged mice, compound PO, 50 mg/kg, read-out: percent inhibition of IL-1β production
Outline: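 Serum IL-1β was measured by ELISA 7 h after an IP dose of 20 mg/kg LPS in CD1 mice, n=6 per group. Compounds in olive oil/DMSO/ethanol 90:5:5 were injected IP 1 h post-LPS (some analogs were dosed at challenge), and separate groups received 50 mg/kg by oral gavage.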

ICE = molecular target: T1, ICE (Homo sapiens, UniProt P29466); assay: Enzyme assay with UV-visible substrate (visible ICE assay, Succinyl-Tyr-Val-Ala-Asp-pNitroanilide); type: biochemical
T1 sequence (P29466 120-297 limits assumed): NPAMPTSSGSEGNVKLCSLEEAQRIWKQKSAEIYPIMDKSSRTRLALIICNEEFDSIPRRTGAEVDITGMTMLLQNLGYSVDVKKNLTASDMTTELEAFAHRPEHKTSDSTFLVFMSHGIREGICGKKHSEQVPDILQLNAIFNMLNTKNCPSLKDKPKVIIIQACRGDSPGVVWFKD
T1 sequence (P29466 317-404 limits assumed): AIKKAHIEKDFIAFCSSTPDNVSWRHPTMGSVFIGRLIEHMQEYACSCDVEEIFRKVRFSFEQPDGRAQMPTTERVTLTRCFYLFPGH
Outline: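 Colorimetric caspase-1 activity: 15 min enzyme-inhibitor preincubation (RT), then Suc-Tyr-Val-Ala-Asp-pNA; 405-603 nm kinetics, 20 min, 37° C. Ki from rate fitting.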

[3] = Pharmacokinetic studies in the mouse (i.v. clearance, plasma levels); type: in vivo; conditions: CD-1, plasma, iv, mouse, 25 mg/kg
Method: Pharmacokinetic Studies in the Mouse
Sample Preparation and Dosing
Compounds were dissolved in sterile TRIS solution (0.02M or 0.05M) at a concentration of 2.5 mg/ml. Where necessary to ensure a complete solution, the sample was first dissolved in a minimum of dimethylacetamide (maximum of 5% of total solution volume) then diluted with the TRIS solution.
The drug solution was administered to CD-1 mice (Charles River Laboratories—26-31 g) via the tail vein at a dose volume of 10 ml/kg giving a drug dose of 25 mg/kg.
Mice were dosed in groups of 5 for each timepoint (generally from 2 minutes to 2 hours) then at the appropriate time the animals were anaesthetised with halothane and the blood collected into individual heparinized tubes by jugular severance. The blood samples were cooled to 0° C. then the plasma separated and stored at −20° C. until assayed.
Drug concentration in the plasma samples were determined by HPLC analysis with UV or MS (ESP) detection. Reverse phase chromatography was employed using a variety of bonded phases from C1 to C18 with eluents composed of aqueous buffer/acetonitrile mixtures run under isocratic conditions.
Quantitation was by external standard methods with calibration curves constructed by spiking plasma with drug solutions to give concentrations in the range of 0.5 to 50 μg/ml.
Prior to analysis the plasma samples were deproteinated by the addition of acetonitrile, methanol, trichloroacetic acid or perchloric acid followed by centrifugation at 10,000 g for 10 minutes. Sample volumes of 20 μl to 50 μl were injected for analysis.
The drug was dissolved in sterile 0.02M Tris to give a 2.5 mg/ml solution which was administered to […] of 5 male CD-1 mice via the tail vein at a dose of 25 mg/kg. At each of the following timepoints: 2, 5, 10, 15, 20, 30, 45, 60, 90 and 120 minutes a group of animals was anaesthetised and the blood collected into heparinized tubes. After separation the plasma was stored at −20° C. until assayed.
Aliquots of plasma (150 μl) were treated with 5% perchloric acid (5 μl) then mixed by vortexing and allowed to stand for 90 minutes prior to centrifugation. The resulting supernatant was separated and 20 μl was injected for HPLC analysis.
Aliquots of plasma (100 μl) were diluted with acetonitrile (100 μl) then mixed by vortexing for 20 seconds before centrifugation for 10 minutes. The resulting supernatant was separated and 20 μl was injected for HPLC analysis.

[4] = In vivo rat clearance assay; conditions: plasma, iv, 10-20 mg/kg
Method: In Vivo Rat Clearance Assay
Cannulations of the jugular and carotid vessels of rats under anesthesia were performed one day prior to the pharmacokinetic study. M. J. Free, R. A. Jaffee; ‘Cannulation techniques for the collection blood and other bodily fluids’; in: Animal Models; p. 480-495; N. J. Alexander, Ed.; Academic Press; (1978). Drug (10 mg/mL) was administered via the jugular vein in a vehicle usually consisting of: propylene glycol/saline, containing 100 mM sodium bicarbonate in a 1:1 ratio. Animals were dosed with 10-20 mg drug/kg and blood samples were drawn at 0, 2, 5, 7, 10, 15, 20, 30, 60, and 90 minutes from an indwelling carotid catheter. The blood was centrifuged to plasma and stored at −20° C. until analysis. Pharmacokinetic analysis of data was performed by non-linear regression using standard software such as RStrip (MicroMath Software, UT) and/or Pcnonlin (SCI Software, NC) to obtain clearance values.
Rat plasma was extracted with an equal volume of acetonitrile (containing 0.1% TFA). Samples were then centrifuged at approximately 1,000×g and the supernatant analyzed by gradient HPLC. A typical assay procedure is described below.
A standard curve was run at 20, 10, 5, 2 and 1 μg/mL concentrations.

[5] = 0 h, administered 0 h relative to time of LPS challenge
[6] = 2 h, administered −2 h relative to time of LPS challenge
[7] = * = values obtained upon reassay

| SMILES | melting point | IC50 ([1]; Table 17) [nM] | IC50 [1, 7] [nM] | Ki (ICE; Table 5) [nM] | clearance [3] [mL/min/kg] | also measured |
| --- | --- | --- | --- | --- | --- | --- |
| O=C(O)CC(NC(=O)Cn1c(Cc2ccccc2)ccc(NC(=O)CCc2ccccc2)c1=O)C(=O)COC(=O)c1c(Cl)cccc1Cl (centres unmarked) [Compound 57b, N-2-(6-Benzyl-1,2-dihydro-2-oxo-3-(3-phenylpropionyl)amino-1-pyridyl)acetyl-3-amino-5-(2,6-dichloro-benzoyloxy)-4-oxo-pentanoic acid] | 116 to 120 °C (dec.) | – | – | – | – | – |
| CC(=O)Nc1ccc(C(=O)N[C@H]2CCC(=O)N3CCC[C@@H](C(=O)N[C@H]4CC(=O)OC4OCc4ccccc4)N3C2=O)cc1 (stereo partly drawn) [Compound 213x, [1S,9S(2RS,3S)]9-[4-(Acetylamino)benzoylamino]-N-(2-benzyloxy-5-oxo-tetrahydrofuran-3-yl)-6,10-dioxo-1,2,3,4,7,8,9,10-octahydro-6H-pyridazino[1,2-a][1,2]diazepine-1-carboximide] | 150 to 170 °C | 4500 | – | – | – | IC50 (IL-1β, human whole blood): 2500 nM; inhibition at 50 mg/kg [2, 5]: 78%; inhibition at 50 mg/kg [2, 6]: 0% |
| CS(=O)(=O)N[C@H]1CCC(=O)N2CCC[C@@H](C(=O)N[C@@H](CC(=O)O)C(=O)c3nc4cc(Cl)cc(Cl)c4o3)N2C1=O [Compound 223b, [3S(1S,9S)]-4-(5,7-Dichlorobenzoxazol-2-yl)-3-(6,10-dioxo-9-methylsulphonylamino-1,2,3,4,7,8,9,10-octahydro-6H-pyridazino[1,2-a][1,2]diazepine-1-carboxamido)-4-oxobutanoic acid] | – | – | 5000 | 99 | > 100 | – |
| O=C[C@H](CC(=O)O)NC(=O)[C@@H]1CCCN2C(=O)CCN(NS(=O)(=O)c3ccc4ccccc4c3)C(=O)N12 [Compound 265a, [3S(4 S)]3-[6,10-Dioxo-7-(2-naphthalenesulfonyl)amino-1,2,3,4,7,8,9,10-octahydro-6H-pyridazino[1,2-a][1,2,4]triazepine-4-carboxamido]-4-oxobutanoic acid] | 126 to 130 °C (dec.) | 25000 | – | – | – | Ki (ICE; Table 17): 2600 nM |
| CC(=O)Nc1ccc(C(=O)N[C@H]2CCC(=O)N3CCC[C@@H](C(=O)N[C@H](C=O)CC(=O)O)N3C2=O)cc1 [Compound 418] | – | – | – | 2.2 | 13 | clearance [4]: 5.9 mL/min/kg; inhibition at 50 mg/kg [2, 5]: 52%; inhibition at 50 mg/kg ([2]; 1 h, administered +1 h relative to time of LPS challenge): 64%; inhibition at 50 mg/kg [2, 6]: 25% |
| O=C(O)C[C@H](NC(=O)[C@@H]1CCCN2C(=O)CC[C@H](NC(=O)c3ccccc3)C(=O)N12)C(=O)CSc1nccs1 [Compound 510a, [3S(1S,9S)]3-(9-Benzoylamino-6,10-dioxo-1,2,3,4,7,8,9,10-octahydro-6H-pyridazino[1,2-a][1,2]diazepine-1-carboxamido)-5-(2-mercaptothiazole)-4-oxopentanoic acid] | – | 200 | – | – | – | Ki (ICE; Table 17): 65 nM; clearance ([3]; Table 17): 267 mL/min/kg |
| O=C(O)C[C@H](NC(=O)[C@@H]1CCCN2C(=O)CC[C@H](NC(=O)c3ccccc3)C(=O)N12)C(=O)Cn1cnccc1=O [Compound 510d, [3S(1S,9S)]3-[6,10-Dioxo-1,2,3,4,7,8,9,10-octahydro-9-(phenycarbonylamino)-6H-pyridazino[1,2-a][1,2]diazepine-1-carboxamido]-4-oxo-5-{2-[4(3H)-pyrimidone]}pentanoic acid] | 140 to 180 °C | > 20000 | – | – | – | Ki (ICE; Table 17): 2300 nM |
| CCOC1OC(=O)C[C@@H]1NC(=O)[C@@H]1CCCN2C(=O)CC[C@H](NC(=O)c3cc4ccccc4[nH]3)C(=O)N12 (stereo partly drawn) [Compound 550o, [1S,9S(2RS,3S)]6,10-Dioxo-N-(2-ethoxy-5-oxotetrahydrofuran-3-yl)-9-(2-indoloylamino)-1,2,3,4,7,8,9,10-octahydro-6H-pyridazino[1,2-a][1,2]diazepine-1-carboxamide] | 155 to 170 °C | 450 | – | – | – | IC50 (IL-1β, human whole blood): 3000 nM; inhibition at 50 mg/kg [2, 5]: 64%; inhibition at 50 mg/kg [2, 6]: 19% |
| O=C[C@H](CC(=O)O)NC(=O)CN1C(=O)[C@@H](NC(=O)c2ccccc2)CN(C(=O)Cc2ccccc2)c2ccccc21 [Compound 605b, (3S)-3-[(3S)-2-Oxo-3-benzoylamino-5-phenylacetyl-2,3,4,5-tetrahydro-1H-1,5-benzodiazepin-1-acetylamino]-4-oxo-butyric acid] | – | – | 10000 | 45 | 97 | – |
| O=C[C@H](CC(=O)O)NC(=O)CN1C(=O)[C@@H](NC(=O)c2ccccc2)CN(C(=O)c2ccccc2)c2ccccc21 [Compound 605c, (3S)-3-[(3S)-2-Oxo-3-benzoylamino-5-benzoyl-2,3,4,5-tetrahydro-1H-1,5-benzodiazepin-1-acetylamino]-4-oxo-butyric acid] | – | – | 4500 | 615 | 37 | – |
| CC(=O)N1C[C@H](NC(=O)c2ccccc2)C(=O)N(CC(=O)N[C@H](C=O)CC(=O)O)c2ccccc21 [Compound 605d, (3S)-3-[(3S)-2-Oxo-3-benzoylamino-5-acetyl-2,3,4,5-tetrahydro-1H-1,5-benzodiazepin-1-acetylamino]-4-oxo-butyric acid] | – | – | 5100 | 95 | 33 | – |
| COC(=O)N1C[C@H](NC(=O)c2ccccc2)C(=O)N(CC(=O)N[C@H](C=O)CC(=O)O)c2ccccc21 [Compound 605j, (3S)-3-[(3S)-2-Oxo-3-benzoylamino-5-methoxycarbonyl-2,3,4,5-tetrahydro-1H-1,5-benzodiazepin-1-acetylamino]-4-oxo-butyric acid] | – | – | 8750 | 110 | 71 | – |
